Results as given in ChEMBL document CHEMBL1208731, “A novel, broad-spectrum anticancer compound containing the imidazo[4,5-e][1,3]diazepine ring system” (Bioorg Med Chem Lett, 2010).
Activity calls are given as the source filed them. The rule behind the calls is not given here.

Experiments:
Assay type in all cases: functional, cell-based
PC-3 = test: Cytotoxicity against human PC3 cells after 72 hrs; conditions: PC-3, 72 h
OVCAR-3 = test: Cytotoxicity against human OVCAR-3 cells after 72 hrs
NCI-H460 = test: Cytotoxicity against human H460 cells after 72 hrs; conditions: NCI-H460, 72 h
MCF7 = test: Cytotoxicity against human MCF7 cells after 72 hrs; conditions: MCF7, 72 h
A549 = test: Cytotoxicity against human A549 cells after 72 hrs; conditions: A549, 72 h

**Q.** How did the IC50 (PC-3) turn out when CCNc1nc(N)c2ncnc-2c(N)n1 was run?
**A.** > 800 µM

**Q.** And the Activity (OVCAR-3)?
**A.** Active

**Q.** And the IC50 (NCI-H460)?
**A.** 22 µM

**Q.** What about the IC50 (MCF7) of the same compound?
**A.** > 800 µM

**Q.** And the IC50 (A549)?
**A.** 38 µM
